Laboratory results: ChEMBL document CHEMBL1127867, “5-Membered ring heterocyclic carboxylic acids as angiotensin II antagonists” (Bioorg Med Chem Lett, 1994)

What follows are compounds tested against Angiotensin II receptor (Oryctolagus cuniculus) (assay: Tested in vitro for angiotensin II induced antagonistic activity in rabbit aorta, expressed as pA2).

pA2	Compound
7.94	CCCN(Cc1ccc(-c2ccccc2-c2nn[nH]n2)cc1)c1nn(C)cc1C(=O)O
6.46	CCCCN(Cc1ccc(-c2ccccc2-c2nn[nH]n2)cc1)c1c(C(=O)O)ncn1C
7.43	CCCc1nc(N(CCC)Cc2ccc(-c3ccccc3-c3nn[nH]n3)cc2)sc1C(=O)O
9	CCCN(Cc1ccc(-c2ccccc2-c2nn[nH]n2)cc1)c1nsnc1C(=O)O
7.87	CCCN(Cc1ccc(-c2ccccc2-c2nn[nH]n2)cc1)c1ncc(C(=O)O)s1
7.56	CCCN(Cc1ccc(-c2ccccc2-c2nn[nH]n2)cc1)c1nc(C(F)(F)F)c(C(=O)O)s1
8.36	CCCCN(Cc1ccc(-c2ccccc2-c2nn[nH]n2)cc1)c1snnc1C(=O)O
8.2	CCCCN(Cc1ccc(-c2ccccc2-c2nn[nH]n2)cc1)c1scnc1C(=O)O
7.34	CCCCCCN(Cc1ccc(-c2ccccc2-c2nn[nH]n2)cc1)c1ncc(C(=O)O)s1
8.63	CCCN(Cc1ccc(-c2ccccc2-c2nn[nH]n2)cc1)c1nc(C)c(C(=O)O)s1
8.86	CCCCN(Cc1ccc(-c2ccccc2-c2nn[nH]n2)cc1)c1nnn(CCCC)c1C(=O)O
8.8	CCCCN(Cc1ccc(-c2ccccc2-c2nn[nH]n2)cc1)c1ncc(C(=O)O)s1
8.6	CCCCN(Cc1ccc(-c2ccccc2-c2nn[nH]n2)cc1)c1nnn(C)c1C(=O)O
< 6	CCCc1nc(NCc2ccc(-c3ccccc3-c3nn[nH]n3)cc2)sc1C(=O)O
< 7	CCCCN(Cc1ccc(-c2ccccc2-c2nn[nH]n2)cc1)c1c(C(=O)O)cnn1C
< 6	O=C(O)c1cnc(NCc2ccc(-c3ccccc3-c3nn[nH]n3)cc2)s1
